The record followed here is patent US10385057B2, “Pyrazole compounds and methods of making and using same” (Lundbeck La Jolla Research Center, Inc., priority 2015, dated 2019).

Where only a bound is given, the exact number is not on record here.

The target of one experiment is T1, MAGL (Mus musculus, UniProt O35678).
T1 construct: mouse brain membrane fraction or cell lysates for mouse assays; from tissue
T1 sequence (O35678 1-303): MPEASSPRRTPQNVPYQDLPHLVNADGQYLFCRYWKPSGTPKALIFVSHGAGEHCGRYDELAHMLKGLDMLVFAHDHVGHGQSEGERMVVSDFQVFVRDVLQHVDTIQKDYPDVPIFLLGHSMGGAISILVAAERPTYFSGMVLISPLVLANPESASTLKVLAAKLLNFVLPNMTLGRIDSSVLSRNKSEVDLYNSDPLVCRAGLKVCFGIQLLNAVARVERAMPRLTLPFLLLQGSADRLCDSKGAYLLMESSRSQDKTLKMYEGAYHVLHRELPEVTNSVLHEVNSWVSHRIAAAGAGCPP
Briefly: In vitro competitive activity-based protein profiling, mouse MAGL. The experiment is classed as biochemical. As to conditions: for inhibition at 1 µM: read-out: MAGL % inh. 1 μM (mouse). As to the method:
(§1) In Vitro Competitive Activity-Based Protein Profiling.
(§2) Proteomes (mouse brain membrane fraction or cell lysates for mouse assays; human prefrontal cortex or cell membrane fractions for human assays) (50 μL, 1.0 mg/mL total protein concentration) were preincubated with varying concentrations of inhibitors at 37° C. After 30 min, FP-Rh or HT-01 (1.0 μL, 50 μM in DMSO) was added and the mixture was incubated for another 30 min at 37° C. Reactions were quenched with SDS loading buffer (15 μL—4×) and run on SDS-PAGE. Following gel imaging, serine hydrolase activity was determined by measuring fluorescent intensity of gel bands corresponding to MAGL and FAAH using ImageJ 1.43u software.

For another experiment, the target named is T2, FAAH (Mus musculus, UniProt O08914).
T2 construct: mouse brain membrane fraction or cell lysates for mouse assays; from tissue
T2 sequence (O08914 1-579): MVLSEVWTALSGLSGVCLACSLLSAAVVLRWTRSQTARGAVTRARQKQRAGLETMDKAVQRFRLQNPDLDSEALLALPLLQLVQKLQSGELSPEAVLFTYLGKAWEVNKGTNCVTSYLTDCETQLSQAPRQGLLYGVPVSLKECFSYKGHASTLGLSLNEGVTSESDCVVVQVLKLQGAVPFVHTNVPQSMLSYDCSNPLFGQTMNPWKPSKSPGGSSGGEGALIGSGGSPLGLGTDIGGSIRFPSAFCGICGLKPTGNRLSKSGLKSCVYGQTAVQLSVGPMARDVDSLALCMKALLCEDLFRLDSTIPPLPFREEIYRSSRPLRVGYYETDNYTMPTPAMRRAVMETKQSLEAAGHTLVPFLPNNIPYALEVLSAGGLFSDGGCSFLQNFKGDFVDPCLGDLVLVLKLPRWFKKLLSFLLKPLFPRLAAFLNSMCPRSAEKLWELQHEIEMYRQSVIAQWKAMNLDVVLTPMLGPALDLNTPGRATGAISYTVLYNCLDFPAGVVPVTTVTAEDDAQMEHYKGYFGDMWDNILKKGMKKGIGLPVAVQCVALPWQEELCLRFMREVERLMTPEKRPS
Kind of experiment: In vitro competitive activity-based protein profiling, mouse FAAH. The format is biochemical. As to conditions: for inhibition at 1 µM: read-out: FAAH % inh. 1 μM (mouse). As to the method: as §1, §2

In the case of `O=C(N1CC2CN(Cc3ccc(N4CCOCC4)cc3)CC2C1)n1cc(Cl)cn1` (centres unmarked) [Example 125, (4-chloro-1H-pyrazol-1-yl)(5-(4-morpholinobenzyl)hexahydropyrrolo[3,4-c]pyrrol-2(1H)-yl)methanone], the IC50 at MAGL and at FAAH was 100 to 1000 nM throughout. Also, the inhibition at 1 µM on MAGL (1 μM) and at FAAH was no less than 75% throughout.

For the compound `NC(=O)c1cnn(C(=O)N2CC3CN(Cc4cc(Cl)cc(C(F)(F)F)c4)CC3C2)c1` (centres unmarked) [Example 25, 1-(5-(3-chloro-5-(trifluoromethyl)benzyl)octahydropyrrolo[3,4-c]pyrrole-2-carbonyl)-1H-pyrazole-4-carboxamide], the IC50 on MAGL and on FAAH was no more than 100 nM each time. Moreover, the inhibition at 1 µM on MAGL (1 μM) and on FAAH was no less than 75% each time.

Take `CN(Cc1cc(C(F)(F)F)ccc1Cl)[C@H]1C[C@@H]2CN(C(=O)n3cc(C(N)=O)cn3)C[C@@H]2C1` [Example 214, 1-(trans-5-((2-chloro-5-(trifluoromethyl)benzyl)(methyl)amino)octahydrocyclopenta[c]pyrrole-2-carbonyl)-1H-pyrazole-4-carboxamide]: the inhibition at 1 µM at MAGL (1 μM) and at FAAH was no less than 75% each time.

As for `O=C(N1CCC2(CCN(Cc3ccc(Cl)c(Cl)c3)C2)C1)n1cc(Cl)cn1` (centres unmarked) [Example 127, (4-chloro-1H-pyrazol-1-yl)(7-(3,4-dichlorobenzyl)-2,7-diazaspiro[4.4]nonan-2-yl)methanone], the IC50 is 100 to 1000 nM at MAGL and no more than 100 nM on FAAH. For the same compound, the inhibition at 1 µM at MAGL (1 μM) and at FAAH was no less than 75% each time.

Consider `NC(=O)c1cnn(C(=O)N2CC3CN(Cc4cccc(C(F)(F)F)c4)CC3C2)c1` (centres unmarked) [Example 23, 1-(5-(3-(trifluoromethyl)benzyl)octahydropyrrolo[3,4-c]pyrrole-2-carbonyl)-1H-pyrazole-4-carboxamide], for which the inhibition at 1 µM at MAGL (1 μM) and on FAAH was no less than 75% each time.

`CN(Cc1ccc(-c2cnccn2)cc1C(F)(F)F)[C@H]1C[C@@H]2CN(C(=O)n3cc(C(N)=O)cn3)C[C@@H]2C1` [Example 223, 1-(trans-5-(methyl(4-(pyrazin-2-yl)-2-(trifluoromethyl)benzyl)amino)octahydrocyclopenta[c]pyrrole-2-carbonyl)-1H-pyrazole-4-carboxamide]: the inhibition at 1 µM at MAGL (1 μM) and on FAAH was no less than 75% in each case.

With `Cc1ccccc1CN1CC2CN(C(=O)n3cc(C(F)(F)F)cn3)CC2C1` (centres unmarked) [Example 153, (5-(2-methylbenzyl)hexahydropyrrolo[3,4-c]pyrrol-2(1H)-yl)(4-(trifluoromethyl)-1H-pyrazol-1-yl)methanone], the IC50 on MAGL and on FAAH was no more than 100 nM throughout. The inhibition at 1 µM at MAGL (1 μM) and on FAAH was no less than 75% each time.

On to `CN(Cc1cccc(Oc2ccccc2)c1)[C@@H]1C[C@@H]2CN(C(=O)n3cc(Cl)cn3)C[C@@H]2C1` [Example 164, (4-chloro-1H-pyrazol-1-yl)(cis-5-(methyl(3-phenoxybenzyl)amino)hexahydrocyclopenta[c]pyrrol-2(1H)-yl)methanone], for which the IC50 at MAGL and on FAAH was no more than 100 nM each time. Besides, the inhibition at 1 µM on MAGL (1 μM) and on FAAH was no less than 75% each time.

As for `CNC(=O)c1cnn(C(=O)N2C[C@H]3C[C@@H](N(C)Cc4ccccc4Cl)C[C@H]3C2)c1` [Example 56, 1-(trans-5-((2-chlorobenzyl)(methyl)amino)octahydrocyclopenta[c]pyrrole-2-carbonyl)-N-methyl-1H-pyrazole-4-carboxamide], on MAGL (1 μM), the “MAGL % inh. 1 μM (mouse)” value is “C (% inhibition greater than or equal to 25% and less than 50%)”. Also, the inhibition at 1 µM at FAAH is no less than 75%.

In the case of `NC(=O)c1cnn(C(=O)N2CC[C@@]3(CCN(Cc4cc(Cl)cc(C(F)(F)F)c4)C3)C2)c1` [Example 192, (R)-1-(7-(3-chloro-5-(trifluoromethyl)benzyl)-2,7-diazaspiro[4.4]nonane-2-carbonyl)-1H-pyrazole-4-carboxamide], the IC50 on MAGL and on FAAH was no more than 100 nM each time.

Regarding `O=C(N1CC2CN(Cc3cccc(C(F)(F)F)c3)CC2C1)n1cc(C(F)(F)F)cn1` (centres unmarked) [Example 143, (4-(trifluoromethyl)-1H-pyrazol-1-yl)(5-(3-(trifluoromethyl)benzyl)hexahydropyrrolo[3,4-c]pyrrol-2(1H)-yl)methanone], the IC50 on MAGL and on FAAH was no more than 100 nM each time. Also, the inhibition at 1 µM at MAGL (1 μM) and on FAAH was no less than 75% throughout.

As to `CN(Cc1ccc(Oc2cccnc2)cc1)[C@H]1C[C@@H]2CN(C(=O)n3cc(Cl)cn3)C[C@@H]2C1` [Example 161, (4-chloro-1H-pyrazol-1-yl)(trans-5-(methyl(4-(pyridin-3-yloxy)benzyl)amino)hexahydrocyclopenta[c]pyrrol-2(1H)-yl)methanone], the inhibition at 1 µM on MAGL (1 μM) and on FAAH was no less than 75% in each case.

For `CC(C)c1ccc(CN2CC3CN(C(=O)n4cc(Cl)cn4)CC3C2)c(N2CCCC2)c1` (centres unmarked) [Example 108, (4-chloro-1H-pyrazol-1-yl)(5-(4-isopropyl-2-(pyrrolidin-1-yl)benzyl)hexahydropyrrolo[3,4-c]pyrrol-2(1H)-yl)methanone], the half-inhibitory concentration (IC50) at MAGL was 100 to 1000 nM; at FAAH, 1000 to 10000 nM. In addition, the inhibition at 1 µM is no less than 75% on MAGL (1 μM) and 50 to 75% on FAAH.

With `O=C(N1CC2CN(Cc3ccc(N4CCCC4)cc3)CC2C1)n1cc(Cl)cn1` (centres unmarked) [Example 123, (4-chloro-1H-pyrazol-1-yl)(5-(4-(pyrrolidin-1-yl)benzyl)hexahydropyrrolo[3,4-c]pyrrol-2(1H)-yl)methanone], the IC50 at MAGL and at FAAH was 100 to 1000 nM each time. Also, the inhibition at 1 µM on MAGL (1 μM) and on FAAH was no less than 75% throughout.

Consider `CNC(=O)c1cnn(C(=O)N2CCC3(CCN(Cc4cc(Cl)ccc4Cl)C3)C2)c1` (centres unmarked) [Example 40, 1-(7-(2,5-dichlorobenzyl)-2,7-diazaspiro[4.4]nonane-2-carbonyl)-N-methyl-1H-pyrazole-4-carboxamide], for which the inhibition at 1 µM on MAGL (1 μM) and on FAAH was no less than 75% each time.

As for `O=C(N1CCC2(CCN(Cc3ccccc3C(F)(F)F)C2)C1)n1cc(C(F)(F)F)cn1` (centres unmarked) [Example 180, (4-(trifluoromethyl)-1H-pyrazol-1-yl)(7-(2-(trifluoromethyl)benzyl)-2,7-diazaspiro[4.4]nonan-2-yl)methanone], the inhibition at 1 µM at MAGL (1 μM) and at FAAH was no less than 75% throughout.

On to `CN(Cc1ccccc1C(F)(F)F)[C@@H]1C[C@@H]2CN(C(=O)n3cc(C(=O)N4CCOCC4)cn3)C[C@@H]2C1` [Example 93, (cis-5-(methyl(2-(trifluoromethyl)benzyl)amino)hexahydrocyclopenta[c]pyrrol-2(1H)-yl)(4-(morpholine-4-carbonyl)-1H-pyrazol-1-yl)methanone], for which the inhibition at 1 µM was 50 to 75% at MAGL (1 μM) and no less than 75% at FAAH.

Take `COc1cccc(CN2CC3CN(C(=O)n4cc(C(F)(F)F)cn4)CC3C2)c1` (centres unmarked) [Example 142, (5-(3-methoxybenzyl)hexahydropyrrolo[3,4-c]pyrrol-2(1H)-yl)(4-(trifluoromethyl)-1H-pyrazol-1-yl)methanone]: the IC50 on MAGL and on FAAH was no more than 100 nM in each case. Also, the inhibition at 1 µM at MAGL (1 μM) and at FAAH was no less than 75% throughout.

For the compound `Cc1cc(N2CCOCC2)ccc1CN1CC2CN(C(=O)n3cc(Cl)cn3)CC2C1` (centres unmarked) [Example 131, (4-chloro-1H-pyrazol-1-yl)(5-(2-methyl-4-morpholinobenzyl)hexahydropyrrolo[3,4-c]pyrrol-2(1H)-yl)methanone], the IC50 on MAGL and on FAAH was no more than 100 nM throughout. The inhibition at 1 µM at MAGL (1 μM) and on FAAH was no less than 75% each time.

For the compound `O=C(c1cnn(C(=O)N2CC3CN(Cc4ccc(N5CCOCC5)cc4C(F)(F)F)CC3C2)c1)N1CCN(C2CC2)CC1` (centres unmarked) [Example 14, (4-cyclopropylpiperazin-1-yl)(1-(5-(4-morpholino-2-(trifluoromethyl)benzyl)octahydropyrrolo[3,4-c]pyrrole-2-carbonyl)-1H-pyrazol-4-yl)methanone], the figures for the IC50 on MAGL and at FAAH were 100 to 1000 nM and 1000 to 10000 nM, respectively. Moreover, the inhibition at 1 µM on MAGL (1 μM) and on FAAH was no less than 75% in each case.

As a reminder, the IC50 is the point on the concentration scale where inhibition reaches its midpoint. Lower therefore signals higher potency.
